Test results published in PubChem BioAssay AID256 (DTP/NCI, 2004).
“And” between values parts separate entries of the source, which are not always exact repeats. Equal entries are not always repeated. Inconclusive results and toxic doses are left out.

Tested on: CD2F1 mice, L1210 leukemia ip, survival T/C
Assay: NCI In Vivo Anticancer Drug Screen. Data for tumor model L1210 Leukemia (intraperitoneal) in CD2F1 (CDF1) mice
Conditions: higher = longer survival
Summary of the method: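 In this screen, transplantable tumors were grown in mice given either the compound or its vehicle. Results were expressed as the treated measurement relative to the control measurement.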

[1] = endpoint: mean survival time, dose: 32.0 mg/kg/injection, schedule: Q01DX009 (ip), vehicle: saline
[2] = endpoint: mean survival time, dose: 64.0 mg/kg/injection, schedule: Q01DX009 (ip), vehicle: saline
[3] = endpoint: mean survival time, dose: 100.0 mg/kg/injection, schedule: Q01DX001 (ip), vehicle: saline with Tween-80
[4] = endpoint: mean survival time, dose: 200.0 mg/kg/injection, schedule: Q01DX001 (ip), vehicle: saline with Tween-80
[5] = endpoint: mean survival time, dose: 100.0 mg/kg/injection, schedule: Q04DX003 (ip), vehicle: saline with Tween-80
[6] = endpoint: mean survival time, dose: 200.0 mg/kg/injection, schedule: Q04DX003 (ip), vehicle: saline with Tween-80
[7] = endpoint: mean survival time, dose: 400.0 mg/kg/injection, schedule: Q04DX003 (ip), vehicle: saline with Tween-80
[8] = endpoint: mean survival time, dose: 100.0 mg/kg/injection, schedule: Q01DX009 (ip), vehicle: saline with Tween-80
[9] = endpoint: mean survival time, dose: 200.0 mg/kg/injection, schedule: Q01DX009 (ip), vehicle: saline with Tween-80
[10] = endpoint: mean survival time, dose: 400.0 mg/kg/injection, schedule: Q01DX009 (ip), vehicle: saline with Tween-80

`O=C(CCBr)N1CCN(C(=O)CCBr)CC1` was tested, and the T/C (endpoint: mean survival time, dose: 4.0 mg/kg/injection, schedule: Q03HX016 (ip), vehicle: saline) was 100 % of control, the T/C (endpoint: mean survival time, dose: 4.0 mg/kg/injection, schedule: Q03HX024 (ip), vehicle: saline) was 100 % of control and the T/C (endpoint: mean survival time, dose: 8.0 mg/kg/injection, schedule: Q03HX016 (ip), vehicle: saline) was 101 % of control. The T/C (endpoint: mean survival time, dose: 8.0 mg/kg/injection, schedule: Q03HX016 (oral), vehicle: saline) was 93 % of control, the T/C (endpoint: mean survival time, dose: 8.0 mg/kg/injection, schedule: Q03HX024 (ip), vehicle: saline) was 110 % of control and the T/C (endpoint: mean survival time, dose: 8.0 mg/kg/injection, schedule: Q03HX024 (oral), vehicle: saline) was 119 % of control. The T/C (endpoint: mean survival time, dose: 16.0 mg/kg/injection, schedule: Q03HX008 (ip), vehicle: saline) was 120 % of control, the T/C (endpoint: mean survival time, dose: 16.0 mg/kg/injection, schedule: Q03HX008 (oral), vehicle: saline) was 124 % of control and the T/C (endpoint: mean survival time, dose: 16.0 mg/kg/injection, schedule: Q03HX016 (ip), vehicle: saline) was 117 % of control. For the same compound, the T/C (endpoint: mean survival time, dose: 16.0 mg/kg/injection, schedule: Q03HX016 (oral), vehicle: saline) was 100 % of control, the T/C (endpoint: mean survival time, dose: 16.0 mg/kg/injection, schedule: Q03HX024 (ip), vehicle: saline) was 172 % of control and the T/C (endpoint: mean survival time, dose: 16.0 mg/kg/injection, schedule: Q03HX024 (oral), vehicle: saline) was 123 % of control. The T/C (endpoint: mean survival time, dose: 25.0 mg/kg/injection, schedule: Q01DX009 (ip), vehicle: saline) was 124 % of control, the T/C (endpoint: mean survival time, dose: 25.0 mg/kg/injection, schedule: Q03DX003 (ip), vehicle: saline) was 115 % of control and the T/C (endpoint: mean survival time, dose: 25.0 mg/kg/injection, schedule: Q04DX003 (ip), vehicle: saline) was 108 % of control. For the same compound, the T/C [1] was 161 % of control, the T/C (endpoint: mean survival time, dose: 32.0 mg/kg/injection, schedule: Q01DX009 (oral), vehicle: saline) was 150 % of control and the T/C (endpoint: mean survival time, dose: 32.0 mg/kg/injection, schedule: Q03HX008 (ip), vehicle: saline) was 160 % of control. For the same compound, the T/C (endpoint: mean survival time, dose: 32.0 mg/kg/injection, schedule: Q03HX008 (oral), vehicle: saline) was 151 % of control, the T/C (endpoint: mean survival time, dose: 32.0 mg/kg/injection, schedule: Q03HX016 (ip), vehicle: saline) was 207 % of control and the T/C (endpoint: mean survival time, dose: 32.0 mg/kg/injection, schedule: Q03HX016 (oral), vehicle: saline) was 162 % of control. For the same compound, the T/C (endpoint: mean survival time, dose: 32.0 mg/kg/injection, schedule: Q03HX024 (ip), vehicle: saline) was 101 % of control, the T/C (endpoint: mean survival time, dose: 32.0 mg/kg/injection, schedule: Q03HX024 (oral), vehicle: saline) was 94 % of control and the T/C (endpoint: mean survival time, dose: 32.0 mg/kg/injection, schedule: Q04DX003 (ip), vehicle: saline) was 118 % of control. For the same compound, the T/C (endpoint: mean survival time, dose: 32.0 mg/kg/injection, schedule: Q08DX002 (ip), vehicle: saline) was 98 % of control, the T/C (endpoint: mean survival time, dose: 50.0 mg/kg/injection, schedule: Q03DX003 (ip), vehicle: saline) was 124 % of control and the T/C (endpoint: mean survival time, dose: 50.0 mg/kg/injection, schedule: Q04DX003 (ip), vehicle: saline) was 123 % of control. The T/C [2] was 156 % of control, the T/C (endpoint: mean survival time, dose: 64.0 mg/kg/injection, schedule: Q01DX009 (oral), vehicle: saline) was 122 % of control and the T/C (endpoint: mean survival time, dose: 64.0 mg/kg/injection, schedule: Q04DX003 (ip), vehicle: saline) was 162 % of control. The T/C (endpoint: mean survival time, dose: 64.0 mg/kg/injection, schedule: Q08DX002 (ip), vehicle: saline) was 115 % of control, the T/C (endpoint: mean survival time, dose: 64.0 mg/kg/injection, schedule: Q08DX002 (oral), vehicle: saline) was 109 % of control and the T/C (endpoint: mean survival time, dose: 100.0 mg/kg/injection, schedule: Q01DX007 (ip), vehicle: saline) was 120 % of control. For the same compound, the T/C (endpoint: mean survival time, dose: 100.0 mg/kg/injection, schedule: Q03DX003 (ip), vehicle: saline) was 167 % of control, the T/C (endpoint: mean survival time, dose: 128.0 mg/kg/injection, schedule: Q01DX001 (oral), vehicle: saline) was 150 % of control and the T/C (endpoint: mean survival time, dose: 128.0 mg/kg/injection, schedule: Q01DX009 (oral), vehicle: saline) was 105 % of control. For the same compound, the T/C (endpoint: mean survival time, dose: 128.0 mg/kg/injection, schedule: Q04DX003 (ip), vehicle: saline) was 176 % of control, the T/C (endpoint: mean survival time, dose: 128.0 mg/kg/injection, schedule: Q04DX003 (oral), vehicle: saline) was 157 % of control and the T/C (endpoint: mean survival time, dose: 128.0 mg/kg/injection, schedule: Q08DX002 (ip), vehicle: saline) was 167 % of control. For the same compound, the T/C (endpoint: mean survival time, dose: 256.0 mg/kg/injection, schedule: Q01DX001 (ip), vehicle: saline) was 157 % of control, the T/C (endpoint: mean survival time, dose: 256.0 mg/kg/injection, schedule: Q01DX009 (oral), vehicle: saline) was 88 % of control and the T/C (endpoint: mean survival time, dose: 256.0 mg/kg/injection, schedule: Q08DX002 (ip), vehicle: saline) was 194 % of control. For the same compound, the T/C (endpoint: mean survival time, dose: 256.0 mg/kg/injection, schedule: Q08DX002 (oral), vehicle: saline) was 156 % of control and the T/C (endpoint: mean survival time, dose: 512.0 mg/kg/injection, schedule: Q08DX002 (oral), vehicle: saline) was 156 % of control.

With `CCOC(=O)c1c2cccccc-2c(C#N)c1O` the T/C [3] was 93 % of control, the T/C [4] was 99 % of control and the T/C (endpoint: mean survival time, dose: 400.0 mg/kg/injection, schedule: Q01DX001 (ip), vehicle: saline with Tween-80) was 96 % of control.

`COC(=O)C1C2C(=O)NC(=O)C2C(c2ccc(-c3ccccc3)cc2)N1C1CCCCC1` (centres undefined) was tested, and the T/C [5] was 105 % of control, the T/C [6] was 100 % of control and the T/C [7] was 103 % of control.

In the case of `COC(=O)C1C2CCCN2OC1(C)CO` (centres undefined), the T/C (endpoint: median survival time, dose: 7.5 mg/kg/injection, schedule: Q01DX005 (ip), vehicle: saline) was 98 % of control, the T/C (endpoint: median survival time, dose: 15.0 mg/kg/injection, schedule: Q01DX005 (ip), vehicle: saline) was 101 % of control and the T/C (endpoint: median survival time, dose: 30.0 mg/kg/injection, schedule: Q01DX005 (ip), vehicle: saline) was 96 % of control. The T/C (endpoint: median survival time, dose: 60.0 mg/kg/injection, schedule: Q01DX005 (ip), vehicle: saline) was 106 % of control and the T/C (endpoint: median survival time, dose: 120.0 mg/kg/injection, schedule: Q01DX005 (ip), vehicle: saline) was 104 % of control.

In the case of `O=C1OC(=O)C2C3CCC(O3)C12` (centres undefined), the T/C (endpoint: mean survival time, dose: 1.56 mg/kg/injection, schedule: Q01DX009 (ip), vehicle: saline) was 98 % of control, the T/C (endpoint: mean survival time, dose: 3.12 mg/kg/injection, schedule: Q01DX009 (ip), vehicle: saline) was 101 % of control and the T/C (endpoint: mean survival time, dose: 5.0 mg/kg/injection, schedule: Q01DX009 (ip), vehicle: saline with Tween-80) was 103 % of control. The T/C (endpoint: mean survival time, dose: 10.0 mg/kg/injection, schedule: Q01DX009 (ip), vehicle: saline with Tween-80) was 100 % of control and the T/C (endpoint: mean survival time, dose: 20.0 mg/kg/injection, schedule: Q01DX009 (ip), vehicle: saline with Tween-80) was 98 % of control.

For `CC/C=C(CC)\C(=C\CC)CC`, the T/C (endpoint: mean survival time, dose: 50.0 mg/kg/injection, schedule: Q01DX009 (ip), vehicle: saline with Tween-80) was 100 % of control, the T/C [8] was 100 % of control and the T/C [9] was 107 % of control.

In the case of `CNc1ccn(C2OC(CO)C(O)C2SC(C)(C)C)c(=O)n1` (centres undefined), the T/C (endpoint: median survival time, dose: 12.5 mg/kg/injection, schedule: Q01DX005 (ip), vehicle: saline) was 105 % of control, the T/C (endpoint: median survival time, dose: 25.0 mg/kg/injection, schedule: Q01DX005 (ip), vehicle: saline) was 105 % of control and the T/C (endpoint: median survival time, dose: 50.0 mg/kg/injection, schedule: Q01DX005 (ip), vehicle: saline) was 100 % of control. The T/C (endpoint: median survival time, dose: 100.0 mg/kg/injection, schedule: Q01DX005 (ip), vehicle: saline) was 102 % of control and the T/C (endpoint: median survival time, dose: 200.0 mg/kg/injection, schedule: Q01DX005 (ip), vehicle: saline) was 100 % of control.

In the case of `COc1cc([C@@H]2c3cc4c(cc3C[C@H]3COC(=O)[C@@H]32)OCO4)cc(OC)c1OC`, the T/C (endpoint: mean survival time, dose: 6.25 mg/kg/injection, schedule: Q01DX015 (ip), vehicle: saline) was 111 % of control, the T/C (endpoint: mean survival time, dose: 12.5 mg/kg/injection, schedule: Q01DX015 (ip), vehicle: saline) was 118 % of control and the T/C (endpoint: mean survival time, dose: 25.0 mg/kg/injection, schedule: Q01DX015 (ip), vehicle: saline) was 106 % of control.

`O=C(CC(=O)c1ccccc1)CC(=O)c1ccccc1` was tested, and the T/C [8] was 98 % of control, the T/C [9] was 100 % of control and the T/C [10] was 102 % of control.

In the case of `Nc1ccc(/C=C/C(=O)Nc2ccc(S(=O)(=O)F)cc2)cc1`, the T/C [3] was 98 % of control and the T/C [4] was 95 % of control.

With `COc1ccc(/C=N/NC(N)=S)cc1` the T/C (endpoint: mean survival time, dose: 16.0 mg/kg/injection, schedule: Q01DX008 (iv), vehicle: saline) was 98 % of control, the T/C (endpoint: mean survival time, dose: 32.0 mg/kg/injection, schedule: Q01DX008 (iv), vehicle: saline) was 100 % of control and the T/C [1] was 100 % of control and 109 % of control. The T/C (endpoint: mean survival time, dose: 64.0 mg/kg/injection, schedule: Q01DX008 (iv), vehicle: saline) was 97 % of control, the T/C [2] was 98 % of control and the T/C (endpoint: mean survival time, dose: 128.0 mg/kg/injection, schedule: Q01DX009 (ip), vehicle: saline) was 100 % of control and 109 % of control. For the same compound, the T/C (endpoint: mean survival time, dose: 256.0 mg/kg/injection, schedule: Q01DX009 (ip), vehicle: saline) was 104 % of control and 112 % of control.

In the case of `CC(=O)c1ccccc1OC(=O)c1ccccc1`, the T/C [8] was 100 % of control, the T/C [5] was 107 % of control and the T/C [9] was 91 % of control. The T/C [6] was 101 % of control, the T/C [10] was 93 % of control and the T/C [7] was 104 % of control.
